IC50 data for eight compounds are collected here from ChEMBL document CHEMBL3608278 (J Med Chem, 2015).

The target in experiment [1] is T1, Potassium voltage-gated channel subfamily A member 3 (Homo sapiens, UniProt P22001). It counts as cell-based, CHO-K1.
Experiment [2] deals with T1, Potassium voltage-gated channel subfamily A member 3. Nature of the experiment: cell-based. Also on record: species or system Blood.
For experiment [3] the target is unchanged. Also on record: species or system Blood.

T1 sequence (P22001 whole entry): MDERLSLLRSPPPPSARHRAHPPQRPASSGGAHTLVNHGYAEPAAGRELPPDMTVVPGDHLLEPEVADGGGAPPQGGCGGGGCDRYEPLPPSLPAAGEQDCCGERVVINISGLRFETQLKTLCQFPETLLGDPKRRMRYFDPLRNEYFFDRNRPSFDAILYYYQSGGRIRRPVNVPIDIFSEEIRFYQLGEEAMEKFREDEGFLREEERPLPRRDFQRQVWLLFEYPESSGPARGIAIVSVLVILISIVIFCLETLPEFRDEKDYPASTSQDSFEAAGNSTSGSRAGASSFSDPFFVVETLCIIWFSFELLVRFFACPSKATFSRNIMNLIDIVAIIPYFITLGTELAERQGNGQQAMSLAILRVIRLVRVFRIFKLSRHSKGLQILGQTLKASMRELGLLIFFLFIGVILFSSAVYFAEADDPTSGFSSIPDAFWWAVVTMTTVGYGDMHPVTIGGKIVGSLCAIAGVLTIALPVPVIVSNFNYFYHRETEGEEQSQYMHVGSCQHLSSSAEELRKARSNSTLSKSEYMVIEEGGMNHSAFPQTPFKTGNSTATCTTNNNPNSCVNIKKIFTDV

`CC[C@H](C)[C@@H]1NC(=O)[C@@H](NC(=O)[C@H](CO)NC(=O)[C@@H](N)CCCNC(=N)N)CSSC[C@@H](C(=O)O)NC(=O)[C@H]([C@@H](C)O)NC(=O)CNC(=O)[C@@H]2CSSC[C@@H]3NC(=O)[C@H](CCC(N)=O)NC(=O)[C@H](Cc4ccccc4)NC(=O)[C@H](C)NC(=O)[C@H]([C@@H](C)O)NC(=O)[C@H](CSSC[C@H](NC(=O)[C@H](Cc4ccccc4)NC(=O)[C@H](CO)NC(=O)[C@H](CC(C)C)NC(=O)[C@H](CCCNC(=N)N)NC(=O)[C@H](Cc4ccc(O)cc4)NC(=O)[C@H](CCCCN)NC(=O)[C@H](CCSC)NC(=O)[C@H](CCC(=O)O)NC(=O)[C@H](Cc4cnc[nH]4)NC(=O)[C@H](CCCCN)NC3=O)C(=O)N[C@@H](CCCNC(=N)N)C(=O)N[C@@H](CCCCN)C(=O)N[C@@H]([C@@H](C)O)C(=O)N2)NC(=O)[C@H](CCCNC(=N)N)NC(=O)[C@H](CO)NC(=O)[C@H](CCCCN)NC(=O)[C@@H]2CCCN2C(=O)[C@H]([C@@H](C)CC)NC(=O)[C@H]([C@@H](C)O)NC(=O)[C@H](CC(=O)O)NC1=O`: the IC50 in experiment [1] was over 3.33 nM; in experiment [2], over 92 nM; in experiment [3], over 92 nM.

As for `CC[C@H](C)[C@@H]1NC(=O)[C@@H](NC(=O)[C@H](CO)NC(=O)[C@@H](N)CCCNC(=N)N)CSSC[C@@H](C(=O)O)NC(=O)[C@H]([C@@H](C)O)NC(=O)CNC(=O)[C@@H]2CSSC[C@@H]3NC(=O)[C@H](CCC(N)=O)NC(=O)[C@H](Cc4ccccc4)NC(=O)[C@H](C)NC(=O)[C@H]([C@@H](C)O)NC(=O)[C@H](CSSC[C@H](NC(=O)[C@H](CCCNC(=N)N)NC(=O)[C@H](CO)NC(=O)[C@H](CC(C)C)NC(=O)[C@H](CCCNC(=N)N)NC(=O)[C@H](Cc4ccc(O)cc4)NC(=O)[C@H](CCCCN)NC(=O)[C@H](CCSC)NC(=O)[C@H](CO)NC(=O)[C@H](Cc4cnc[nH]4)NC(=O)[C@H](CCCCN)NC3=O)C(=O)N[C@@H](CCCNC(=N)N)C(=O)N[C@@H](CCCCN)C(=O)N[C@@H]([C@@H](C)O)C(=O)N2)NC(=O)[C@H](CCCNC(=N)N)NC(=O)[C@H](CO)NC(=O)[C@H](CCCCN)NC(=O)[C@@H]2CCCN2C(=O)[C@H]([C@@H](C)CC)NC(=O)[C@H]([C@@H](C)O)NC(=O)[C@H](CC(=O)O)NC1=O`, the IC50 was over 3.33 nM in experiment [1], 13 nM in experiment [2] and 59.7 nM in experiment [3].

Consider `CC[C@H](C)[C@@H]1NC(=O)[C@@H](NC(=O)[C@H](CO)NC(=O)[C@@H](N)CCCNC(=N)N)CSSC[C@@H](C(=O)O)NC(=O)[C@H]([C@@H](C)O)NC(=O)CNC(=O)[C@@H]2CSSC[C@@H]3NC(=O)[C@H](CCC(N)=O)NC(=O)[C@H](Cc4ccccc4)NC(=O)[C@H](C)NC(=O)[C@H]([C@@H](C)O)NC(=O)[C@H](CSSC[C@H](NC(=O)[C@H](Cc4ccccc4)NC(=O)[C@H](CO)NC(=O)[C@H](CC(C)C)NC(=O)[C@H](CCCNC(=N)N)NC(=O)[C@H](Cc4ccc(O)cc4)NC(=O)[C@H](CCCCN)NC(=O)[C@H](Cc4cccc5ccccc45)NC(=O)[C@H](CO)NC(=O)[C@H](Cc4cnc[nH]4)NC(=O)[C@H](CCCCN)NC3=O)C(=O)N[C@@H](CCCNC(=N)N)C(=O)N[C@@H](CCCCN)C(=O)N[C@@H]([C@@H](C)O)C(=O)N2)NC(=O)[C@H](CCCNC(=N)N)NC(=O)[C@H](CO)NC(=O)[C@H](CCCCN)NC(=O)[C@@H]2CCCN2C(=O)[C@H]([C@@H](C)CC)NC(=O)[C@H]([C@@H](C)O)NC(=O)[C@H](CC(=O)O)NC1=O`, for which the IC50 in experiment [1] was 0.853 nM; in experiment [2], 6.59 nM; in experiment [3] it was 8.13 nM.

Regarding `CC[C@H](C)[C@@H]1NC(=O)[C@@H](NC(=O)[C@H](CO)NC(=O)[C@@H](N)CCCNC(=N)N)CSSC[C@@H](C(=O)O)NC(=O)[C@H]([C@@H](C)O)NC(=O)CNC(=O)[C@@H]2CSSC[C@@H]3NC(=O)[C@H](CCC(N)=O)NC(=O)[C@H](Cc4ccccc4)NC(=O)[C@H](C)NC(=O)[C@H](CCCNC(=N)N)NC(=O)[C@H](CSSC[C@H](NC(=O)[C@H](Cc4ccccc4)NC(=O)[C@H](CO)NC(=O)[C@H](CC(C)C)NC(=O)[C@H](CCCNC(=N)N)NC(=O)[C@H](Cc4ccc(O)cc4)NC(=O)[C@H](CCCCN)NC(=O)[C@H](CCSC)NC(=O)[C@H](CO)NC(=O)[C@H](Cc4cnc[nH]4)NC(=O)[C@H](CCCCN)NC3=O)C(=O)N[C@@H](CCCNC(=N)N)C(=O)N[C@@H](CCCCN)C(=O)N[C@@H]([C@@H](C)O)C(=O)N2)NC(=O)[C@H](CCCNC(=N)N)NC(=O)[C@H](CO)NC(=O)[C@H](CCCCN)NC(=O)[C@@H]2CCCN2C(=O)[C@H]([C@@H](C)CC)NC(=O)[C@H]([C@@H](C)O)NC(=O)[C@H](CC(=O)O)NC1=O`, the results for the IC50 in experiment [1], in experiment [2] and in experiment [3] were 0.152 nM, 0.398 nM and 0.635 nM, respectively.

Consider `CC[C@H](C)[C@@H]1NC(=O)[C@@H](NC(=O)[C@H](CO)NC(=O)[C@@H](N)CCCNC(=N)N)CSSC[C@@H](C(=O)O)NC(=O)[C@H]([C@@H](C)O)NC(=O)CNC(=O)[C@@H]2CSSC[C@@H]3NC(=O)[C@H](CCCNC(=N)N)NC(=O)[C@H](Cc4ccccc4)NC(=O)[C@H](C)NC(=O)[C@H]([C@@H](C)O)NC(=O)[C@H](CSSC[C@H](NC(=O)[C@H](Cc4ccccc4)NC(=O)[C@H](CO)NC(=O)[C@H](CC(C)C)NC(=O)[C@H](CCCNC(=N)N)NC(=O)[C@H](Cc4ccc(O)cc4)NC(=O)[C@H](CCCCN)NC(=O)[C@H](CCSC)NC(=O)[C@H](CO)NC(=O)[C@H](Cc4cnc[nH]4)NC(=O)[C@H](CCCCN)NC3=O)C(=O)N[C@@H](CCCNC(=N)N)C(=O)N[C@@H](CCCCN)C(=O)N[C@@H]([C@@H](C)O)C(=O)N2)NC(=O)[C@H](CCCNC(=N)N)NC(=O)[C@H](CO)NC(=O)[C@H](CCCCN)NC(=O)[C@@H]2CCCN2C(=O)[C@H]([C@@H](C)CC)NC(=O)[C@H]([C@@H](C)O)NC(=O)[C@H](CC(=O)O)NC1=O`, for which the IC50 in experiment [1] was determined as 0.166 nM; in experiment [2], 0.372 nM; in experiment [3], 0.492 nM.

Take `CC[C@H](C)[C@@H]1NC(=O)[C@@H](NC(=O)[C@H](CO)NC(=O)[C@@H](N)CCC(=O)O)CSSC[C@@H](C(=O)O)NC(=O)[C@H]([C@@H](C)O)NC(=O)CNC(=O)[C@@H]2CSSC[C@@H]3NC(=O)[C@H](CCC(N)=O)NC(=O)[C@H](Cc4ccccc4)NC(=O)[C@H](C)NC(=O)[C@H]([C@@H](C)O)NC(=O)[C@H](CSSC[C@H](NC(=O)[C@H](Cc4ccccc4)NC(=O)[C@H](CO)NC(=O)[C@H](CC(C)C)NC(=O)[C@H](CCCNC(=N)N)NC(=O)[C@H](Cc4ccc(O)cc4)NC(=O)[C@H](CCCCN)NC(=O)[C@H](CCSC)NC(=O)[C@H](CO)NC(=O)[C@H](Cc4cnc[nH]4)NC(=O)[C@H](CCCCN)NC3=O)C(=O)N[C@@H](CCCNC(=N)N)C(=O)N[C@@H](CCCCN)C(=O)N[C@@H]([C@@H](C)O)C(=O)N2)NC(=O)[C@H](CCCNC(=N)N)NC(=O)[C@H](CO)NC(=O)[C@H](CCCCN)NC(=O)[C@@H]2CCCN2C(=O)[C@H]([C@@H](C)CC)NC(=O)[C@H]([C@@H](C)O)NC(=O)[C@H](CC(=O)O)NC1=O`: the IC50 in experiment [1] was 0.151 nM; in experiment [2] it was 0.214 nM; in experiment [3], 0.249 nM.

For the compound `CC[C@H](C)[C@@H]1NC(=O)[C@@H](NC(=O)[C@H](CO)NC(=O)[C@@H](N)CCCNC(=N)N)CSSC[C@@H](C(=O)O)NC(=O)[C@H]([C@@H](C)O)NC(=O)[C@H](CCCNC(=N)N)NC(=O)[C@@H]2CSSC[C@@H]3NC(=O)[C@H](CCC(N)=O)NC(=O)[C@H](Cc4ccccc4)NC(=O)[C@H](C)NC(=O)[C@H]([C@@H](C)O)NC(=O)[C@H](CSSC[C@H](NC(=O)[C@H](Cc4ccccc4)NC(=O)[C@H](CO)NC(=O)[C@H](CC(C)C)NC(=O)[C@H](CCCNC(=N)N)NC(=O)[C@H](Cc4ccc(O)cc4)NC(=O)[C@H](CCCCN)NC(=O)[C@H](CCSC)NC(=O)[C@H](CO)NC(=O)[C@H](Cc4cnc[nH]4)NC(=O)[C@H](CCCCN)NC3=O)C(=O)N[C@@H](CCCNC(=N)N)C(=O)N[C@@H](CCCCN)C(=O)N[C@@H]([C@@H](C)O)C(=O)N2)NC(=O)[C@H](CCCNC(=N)N)NC(=O)[C@H](CO)NC(=O)[C@H](CCCCN)NC(=O)[C@@H]2CCCN2C(=O)[C@H]([C@@H](C)CC)NC(=O)[C@H]([C@@H](C)O)NC(=O)[C@H](CC(=O)O)NC1=O`, the IC50 in experiment [1] was determined as 0.221 nM; in experiment [2], 0.089 nM; in experiment [3], 0.223 nM.

For `CC[C@H](C)[C@@H]1NC(=O)[C@@H](NC(=O)[C@H](CCC(=O)O)NC(=O)[C@@H](N)CCCNC(=N)N)CSSC[C@@H](C(=O)O)NC(=O)[C@H]([C@@H](C)O)NC(=O)CNC(=O)[C@@H]2CSSC[C@@H]3NC(=O)[C@H](CCC(N)=O)NC(=O)[C@H](Cc4ccccc4)NC(=O)[C@H](C)NC(=O)[C@H]([C@@H](C)O)NC(=O)[C@H](CSSC[C@H](NC(=O)[C@H](Cc4ccccc4)NC(=O)[C@H](CO)NC(=O)[C@H](CC(C)C)NC(=O)[C@H](CCCNC(=N)N)NC(=O)[C@H](Cc4ccc(O)cc4)NC(=O)[C@H](CCCCN)NC(=O)[C@H](CCSC)NC(=O)[C@H](CO)NC(=O)[C@H](Cc4cnc[nH]4)NC(=O)[C@H](CCCCN)NC3=O)C(=O)N[C@@H](CCCNC(=N)N)C(=O)N[C@@H](CCCCN)C(=O)N[C@@H]([C@@H](C)O)C(=O)N2)NC(=O)[C@H](CCCNC(=N)N)NC(=O)[C@H](CO)NC(=O)[C@H](CCCCN)NC(=O)[C@@H]2CCCN2C(=O)[C@H]([C@@H](C)CC)NC(=O)[C@H]([C@@H](C)O)NC(=O)[C@H](CC(=O)O)NC1=O`, the IC50 in experiment [1] came out at 0.095 nM; in experiment [2], 0.029 nM; in experiment [3], 0.039 nM.

In general, IC50 refers to the midpoint of a concentration-inhibition curve.
